Assay results published in US12102063B2 (SYNEXIS LLC, priority 2017, dated 2024).

Experiments:
bacteria = details: end of test period (30 days), three locations
Method: In addition, bacterial contamination in the egg room is assessed by placing blood agar plates at three locations in the room (East, North, and West) at 0, 7, and 30 days, and bacterial growth is assessed after 24 hours.

broilers = tested on: broilers
Text: The chicks hatched according to the methods of Examples 2 and 3 are shipped to a broiler facility and raised to maturity. No additional changes to grow-out methods are made. A total of about 4 million eggs are set per month and the saleable chicks are sent to the grow-out facility. […] The wholesale price of a broiler is currently estimated at $0.85 per pound. […] See the nationalchickencouncil.org available on the web.

chicks = tested on: chicks
Method: Hatching eggs are obtained from a breeder farm and the eggs are subjected to standard egg cleaning and preparation procedures. Hatched chicks are collected and prepared according to standard procedures (separation of eggshells and unhatched eggs, counted, etc.). Chicks are graded according to established methods. See van de Ven et al., “Significance of chick quality score in broiler production,” Animal 6(10):1677-1683; Boerjan, “Programs for single stage incubation and chick quality,” Avian Poultry Biology Reviews 13:237-238 (2002); Tona et al, “Effects of egg storage time on spread of hatch, chick quality and chick juvenile growth,” Poultry Science 82:736-741 (2003).
As indicated, certain studies were performed at Western Hatchery in Abbotsford, British Columbia, Canada (“Western”), under the supervision of the inventors and assignee. Approximately 4 million eggs per month are processed through the hatchery.
The egg room is contiguous to the loading and receiving area of the facility and is exposed to the outside during deliveries for up to 2 to 3 hours daily. […] In addition to the incoming eggs, the egg room includes excess shipping boxes and pallets.
In June 2016, the egg room and facilities are modified to add a vestibule to the loading dock with plastic curtains and upgrading the HVAC system to provide a third supply duct. […] The use of the egg room is further modified to remove unnecessary equipment including, but not limited to, pallets, cardboard boxes, and crates.
Setter incubators are set to industry standard conditions: temperature between 37° C. and 38° C. and relative humidity between 40% and 70%.
FIG. 6 presents the percent hatching of first quality chicks.

Structure (SMILES): OO [DHP, dry hydrogen peroxide]
- number of bacterial colonies on the blood agar plates, total (bacteria): about 30
- Mortality Rate (broilers; After DHP, grow-out facility): 2.2%
- Net increase(# Chicks) (broilers; After DHP, per 4,000,000 eggs set): 62,000
- Broilers raised (broilers; After DHP, per month): 3,161,678
- reduction of mortality at the grow-out facility (broilers; chicks from DHP treated eggs): about 7.8%
- percent hatching of first quality chicks (chicks; after installation of DHP to setter incubator environment, about 0.5 ppm in room): 83%
- After Modification Cull Rate(%), Average (chicks; average of months): 1.65%
- After Modification First Quality Chick (% Hatched), Average (chicks; average of months): 80.82%
- additional birds available for shipping to the grow-out facility (chicks; egg room DHP): about 4,000 birds
- cull rate lower than before DHP modification (chicks; egg room DHP): at least 1%
